In ChEMBL document CHEMBL5230176, “X-ray structure of human aldo-keto reductase 1C3 in complex with a bile acid fused tetrazole inhibitor: experimental validation, molecular docking and structural analysis” (RSC Med Chem, 2023) one finds inhibition data, which are given here for five compounds.

A word on the inhibition: it is the drop in the measured response relative to a control, in per cent.

Calls of active or inactive are those of the source. No cut-off for these calls is given here.

Test [1] concerns the target T1, Aldo-keto reductase family 1 member C3 (Homo sapiens) (UniProt P42330).
T1 sequence (whole entry): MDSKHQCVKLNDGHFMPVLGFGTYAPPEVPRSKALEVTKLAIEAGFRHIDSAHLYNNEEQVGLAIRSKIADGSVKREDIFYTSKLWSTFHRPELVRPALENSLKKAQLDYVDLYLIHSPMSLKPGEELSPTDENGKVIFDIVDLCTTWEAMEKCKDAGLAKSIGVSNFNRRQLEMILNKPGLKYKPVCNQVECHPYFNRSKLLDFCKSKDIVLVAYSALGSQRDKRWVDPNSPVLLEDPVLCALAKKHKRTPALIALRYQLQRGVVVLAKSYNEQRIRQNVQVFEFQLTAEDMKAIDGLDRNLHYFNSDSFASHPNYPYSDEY
As to the kind of experiment: Inhibition of 6 His-tagged human AKR1C3 expressed in Escherichia coli BL21 (DE3) cells using 9,10-phenanthrenequinone as substrate assessed as substrate reduction by measuring change in NADPH fluorescence at 33.3 uM incubated for 30 mins by fluorescence spectroscopic analysis relative to control.

The target in test [2] is T2, Aldo-keto reductase family 1 member C2 (Homo sapiens) (UniProt P52895).
T2 sequence (whole entry): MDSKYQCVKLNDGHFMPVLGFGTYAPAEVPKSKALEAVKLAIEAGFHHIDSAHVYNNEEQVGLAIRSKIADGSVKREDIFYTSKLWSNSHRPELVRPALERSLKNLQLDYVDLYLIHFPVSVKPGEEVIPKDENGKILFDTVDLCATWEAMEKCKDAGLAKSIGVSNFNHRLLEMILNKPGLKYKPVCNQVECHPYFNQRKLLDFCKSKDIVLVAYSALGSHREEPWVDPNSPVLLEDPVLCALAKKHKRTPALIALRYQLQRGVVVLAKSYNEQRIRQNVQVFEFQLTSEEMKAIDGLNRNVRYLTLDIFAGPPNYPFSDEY
As to the kind of experiment: Inhibition of 6 His-tagged human AKR1C2 expressed in Escherichia coli BL21 (DE3) cells using 9,10-phenanthrenequinone as substrate assessed as substrate reduction by measuring change in NADPH consumption at 40 uM incubated for 15 mins by absorbance based spectroscopic analysis relative to control.

For `C[C@H](CCC(=O)O)[C@H]1CC[C@H]2[C@H]3[C@H](CC[C@]12C)[C@@]1(C)CC[C@@H](O)C[C@H]1Cc1nnnn13`, the inhibition in test [1] was 14.2%.
As to `CCOC(=O)CC[C@@H](C)[C@H]1CC[C@H]2[C@H]3[C@H](CC[C@]12C)[C@@]1(C)CC[C@@H](OC(C)=O)C[C@H]1Cc1nnnn13`, in test [1], the inhibition entry is “inactive”.
On to `COC(=O)CC[C@@H](C)[C@H]1CC[C@H]2[C@H]3[C@H](C[C@H](OC(C)=O)[C@]12C)[C@@]1(C)CC[C@@H](OC(C)=O)C[C@H]1Cc1nnnn13`, for which, in test [1], the inhibition entry is “inactive”.
As to `C[C@H](CCC(=O)O)[C@H]1CC[C@H]2[C@H]3[C@H](C[C@H](O)[C@]12C)[C@@]1(C)CC[C@@H](O)C[C@H]1Cc1nnnn13`, the inhibition entry in test [1] is “inactive”.
As to `C[C@H](CCC(=O)O)[C@H]1CC[C@H]2[C@@H]3CC[C@@H]4C[C@H](O)CC[C@]4(C)[C@H]3Cc3nnnn3[C@]12C`, the inhibition stood at 77.9% in test [1] and 13% in test [2].
